Data published in ChEMBL document CHEMBL1201862, “PubChem BioAssay data set” (2004).
Where “and” joins values, the source holds several entries; their conditions need not be identical. Identical values can stand only once.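 Dose response: 5 concentrations. Exposure: 48 h. Format: 96-well plates. Endpoint: linear interpolation; highest concentration if not reached. The concentration for 50% growth inhibition is given as GI50.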 Calls of active or inactive are those of the source. No stated cut-off is given here; in the data, active = GI50 up to about 1.1 µM and inactive = higher.

Legend:
Test in all cases: NCI-60 cell line screen, 48 h
SF-295 = system: SF-295
SK-MEL-5 = system: SK-MEL-5
OVCAR-4 = system: OVCAR-4
HCT-116 = system: HCT-116
SR = system: SR
SNB-75 = system: SNB-75
OVCAR-8 = system: OVCAR-8
SK-OV-3 = system: SK-OV-3
HOP-92 = system: HOP-92
SF-539 = system: SF-539
CCRF-CEM = system: CCRF-CEM
SN12C = system: SN12C
SK-MEL-2 = system: SK-MEL-2
COLO 205 = system: COLO 205
SW-620 = system: SW-620
NCI-H226 = system: NCI-H226
SK-MEL-28 = system: SK-MEL-28

Compound | GI50 (SF-295) | GI50 (SK-MEL-5) | GI50 (OVCAR-4) | GI50 (HCT-116) | GI50 (SR) | GI50 (SNB-75) | GI50 (OVCAR-8) | GI50 (SK-OV-3) | GI50 (HOP-92) | GI50 (SF-539) | GI50 (CCRF-CEM) | GI50 (SN12C) | GI50 (SK-MEL-2) | GI50 (COLO 205) | GI50 (SW-620) | GI50 (NCI-H226) | GI50 (SK-MEL-28)
COc1ccc2cc1Oc1ccc(cc1)C[C@H]1c3cc(c(OC)cc3CCN1C)Oc1c(OC)c(OC)cc3c1[C@H](C2)N(C)CC3 [FANCHININ] | 8.93 µM (inactive) and 36.2 µM (inactive) | 6.1 µM (inactive) and 57.3 µM (inactive) | 2.42 µM (inactive) | 4.5 µM (inactive) and 50.5 µM (inactive) | 2.47 µM (inactive) and 12.1 µM (inactive) | 43.2 µM (inactive) and 6.55 µM (inactive) | 8.38 µM (inactive) and 53.7 µM (inactive) | 5.9 µM (inactive) and 45.8 µM (inactive) | 1.79 µM (inactive) and 57.1 µM (inactive) | 20.1 µM (inactive) and 4.78 µM (inactive) | 33 µM (inactive) and 3.54 µM (inactive) | – | – | – | – | – | –
COC(=O)C(=Cc1cc(OC)ccc1OC)C(=O)OC | 28.2 µM (inactive) | 19.1 µM (inactive) | 20.3 µM (inactive) | – | – | 19.9 µM (inactive) | 30 µM (inactive) | 31.5 µM (inactive) | 19.2 µM (inactive) | 24.7 µM (inactive) | 20 µM (inactive) | 24.9 µM (inactive) | 22.1 µM (inactive) | 18.2 µM (inactive) | 23.7 µM (inactive) | 53.6 µM (inactive) | 23.6 µM (inactive)
O=C1CCC2(c3ccccc3)Nc3ccccc3N12 (configuration not stated) | > 100 µM (inactive) | > 100 µM (inactive) | > 100 µM (inactive) | – | – | > 100 µM (inactive) | > 100 µM (inactive) | – | > 100 µM (inactive) | > 100 µM (inactive) | > 100 µM (inactive) | > 100 µM (inactive) | > 100 µM (inactive) | > 100 µM (inactive) | > 100 µM (inactive) | > 100 µM (inactive) | > 100 µM (inactive)
CC(C)c1cccc(C(C)C)c1NC(=O)/C(Cc1nc2ccc(Cl)cc2nc1O)=N\NC(=O)C[N+](C)(C)C | > 100 µM (inactive) | > 100 µM (inactive) | > 100 µM (inactive) | > 100 µM (inactive) | > 100 µM (inactive) | – | > 100 µM (inactive) | > 100 µM (inactive) | 85.5 µM (inactive) | > 100 µM (inactive) | > 100 µM (inactive) | > 100 µM (inactive) | > 100 µM (inactive) | > 100 µM (inactive) | > 100 µM (inactive) | – | > 100 µM (inactive)
COC(=O)/N=C(\NC(=O)OC)Nc1ccc(Oc2ccccc2)cc1NC=O | 0.439 µM (active) | 0.341 µM (active) | 0.891 µM (active) | 0.49 µM (active) | – | 0.421 µM (active) | 0.593 µM (active) | 0.215 µM (active) | 24.3 µM (inactive) | 0.433 µM (active) | 0.692 µM (active) | 1.58 µM (inactive) | – | 0.2 µM (active) | 0.388 µM (active) | 0.977 µM (active) | –
C[C@]12Cc3cn[nH]c3C(=O)C1CC[C@@H]1C2CC[C@@]2(C)C1CC[C@@H]2O (some centres not stated) | > 100 µM (inactive) | > 100 µM (inactive) | > 100 µM (inactive) | > 100 µM (inactive) | – | > 100 µM (inactive) | > 100 µM (inactive) | > 100 µM (inactive) | > 100 µM (inactive) | > 100 µM (inactive) | > 100 µM (inactive) | > 100 µM (inactive) | 1.23 µM (inactive) | > 100 µM (inactive) | > 100 µM (inactive) | > 100 µM (inactive) | > 100 µM (inactive)
COc1ccc(C)cc1-c1ccc(-c2cc(C)ccc2OC)o1 | > 100 µM (inactive) | – | > 100 µM (inactive) | > 100 µM (inactive) | – | > 100 µM (inactive) | > 100 µM (inactive) | > 100 µM (inactive) | 54.6 µM (inactive) | > 100 µM (inactive) | 68.4 µM (inactive) | > 100 µM (inactive) | 56.9 µM (inactive) | > 100 µM (inactive) | > 100 µM (inactive) | > 100 µM (inactive) | > 100 µM (inactive)
CN1C[C@@H]2CC(=O)CC[C@@H]2C[C@H]1C#N | > 100 µM (inactive) | > 100 µM (inactive) | > 100 µM (inactive) | > 100 µM (inactive) | – | > 100 µM (inactive) | > 100 µM (inactive) | > 100 µM (inactive) | > 100 µM (inactive) | – | > 100 µM (inactive) | > 100 µM (inactive) | > 100 µM (inactive) | – | > 100 µM (inactive) | > 100 µM (inactive) | –
COc1cc(Br)c(/C=N\c2cccc3ccc(OS(=O)(=O)c4cccc([N+](=O)[O-])c4)cc23)cc1OC | 20.4 µM (inactive) | 27.4 µM (inactive) | 28.1 µM (inactive) | 30.5 µM (inactive) | 20.2 µM (inactive) | – | 24 µM (inactive) | > 100 µM (inactive) | 2.44 µM (inactive) | 16.9 µM (inactive) | 12.2 µM (inactive) | 33.9 µM (inactive) | 39.4 µM (inactive) | 66.8 µM (inactive) | 48.1 µM (inactive) | 20.4 µM (inactive) | 6.52 µM (inactive)
Sc1ncnc2c1ncn2C1CCCO1 (configuration not stated) | > 100 µM (inactive) | > 100 µM (inactive) | 51.1 µM (inactive) | 55.5 µM (inactive) | – | 65.3 µM (inactive) | > 100 µM (inactive) | 35.8 µM (inactive) | 39.3 µM (inactive) | > 100 µM (inactive) | > 100 µM (inactive) | > 100 µM (inactive) | > 100 µM (inactive) | > 100 µM (inactive) | > 100 µM (inactive) | – | > 100 µM (inactive)
CC1(C)SCc2nc3ncccc3n21 | > 100 µM (inactive) | > 100 µM (inactive) | > 100 µM (inactive) | – | – | > 100 µM (inactive) | > 100 µM (inactive) | > 100 µM (inactive) | > 100 µM (inactive) | > 100 µM (inactive) | > 100 µM (inactive) | > 100 µM (inactive) | > 100 µM (inactive) | > 100 µM (inactive) | > 100 µM (inactive) | > 100 µM (inactive) | > 100 µM (inactive)
CCN(CC)Cc1cc(Nc2c3ccccc3nc3c4ccccc4n(C)c23)ccc1O | 10 µM (inactive) | 2.61 µM (inactive) | 14 µM (inactive) | 7.16 µM (inactive) | – | 13.6 µM (inactive) | 9.25 µM (inactive) | 16.7 µM (inactive) | 5.9 µM (inactive) | 3.87 µM (inactive) | 2.05 µM (inactive) | 13.9 µM (inactive) | 20.7 µM (inactive) | 4.73 µM (inactive) | 6.07 µM (inactive) | 29.2 µM (inactive) | 4.43 µM (inactive)
COC(=O)[C@@]12C=CC(=O)[C@H]3C[C@@H](C(C(C)C)C1)[C@]32OC (some centres not stated) | > 100 µM (inactive) | > 100 µM (inactive) | > 100 µM (inactive) | > 100 µM (inactive) | – | > 100 µM (inactive) | > 100 µM (inactive) | > 100 µM (inactive) | > 100 µM (inactive) | > 100 µM (inactive) | > 100 µM (inactive) | > 100 µM (inactive) | > 100 µM (inactive) | > 100 µM (inactive) | > 100 µM (inactive) | – | > 100 µM (inactive)
COc1ccc(OC)c2c(C(=O)O)c(C(C)c3ccccc3)ccc12 (configuration not stated) | > 100 µM (inactive) | > 100 µM (inactive) | > 100 µM (inactive) | > 100 µM (inactive) | > 100 µM (inactive) | > 100 µM (inactive) | > 100 µM (inactive) | > 100 µM (inactive) | – | – | > 100 µM (inactive) | > 100 µM (inactive) | > 100 µM (inactive) | > 100 µM (inactive) | > 100 µM (inactive) | > 100 µM (inactive) | > 100 µM (inactive)
CCCCCCCCCCCCCCCCCCOCC1(COP(=O)([O-])OCC[N+](C)(C)C)CCCO1 (configuration not stated) | 2.34 µM (inactive) | 14.4 µM (inactive) | 2.83 µM (inactive) | 10.1 µM (inactive) | – | 5.56 µM (inactive) | 11.2 µM (inactive) | 14.4 µM (inactive) | 3.27 µM (inactive) | 15.8 µM (inactive) | 2.89 µM (inactive) | 2.2 µM (inactive) | 10.9 µM (inactive) | 1.87 µM (inactive) | – | 5.01 µM (inactive) | 18.2 µM (inactive)
CCOC(=O)C1=C(NC(C)(C)C)OCC1=O | > 100 µM (inactive) | – | > 100 µM (inactive) | > 100 µM (inactive) | > 100 µM (inactive) | > 100 µM (inactive) | > 100 µM (inactive) | > 100 µM (inactive) | > 100 µM (inactive) | > 100 µM (inactive) | – | > 100 µM (inactive) | > 100 µM (inactive) | > 100 µM (inactive) | > 100 µM (inactive) | > 100 µM (inactive) | > 100 µM (inactive)
CC(C)(Oc1ccc(C(=O)c2ccc(Cl)cc2)cc1Cl)C(=O)N1CCN(c2ccccc2)CC1 | > 100 µM (inactive) | 72.8 µM (inactive) | – | 82.2 µM (inactive) | 66.1 µM (inactive) | – | > 100 µM (inactive) | > 100 µM (inactive) | > 100 µM (inactive) | > 100 µM (inactive) | > 100 µM (inactive) | – | > 100 µM (inactive) | – | > 100 µM (inactive) | – | > 100 µM (inactive)
O=c1[nH]ccc(CNC23CC4CC(CC(C4)C2)C3)c1O | 78.2 µM (inactive) | > 100 µM (inactive) | > 100 µM (inactive) | > 100 µM (inactive) | 45.2 µM (inactive) | > 100 µM (inactive) | > 100 µM (inactive) | > 100 µM (inactive) | – | > 100 µM (inactive) | 41.5 µM (inactive) | 45.8 µM (inactive) | > 100 µM (inactive) | > 100 µM (inactive) | > 100 µM (inactive) | > 100 µM (inactive) | –
